≈ marks a conversion by molar mass, not a printed value. Where only a bound is given, the exact number is not on record here.

Series [1] is described as follows: Permeability of the compound by PAMPA. Format: ADME. On the technique in general: PAMPA measures passive passage across an artificial lipid membrane.
Another series has as its system Blood. Kind of series: tissue or blood. The conditions noted are these: Homo sapiens.
A short description of series [2]: Aqueous solubility of the compound. The class given is physicochemical. The conditions noted are these: buffer.
A short description of series [3]: (§1) Oral bioavailability in Sprague-Dawley rat at 3 mg/kg administered as single cassette dose by LC-MS/MS analysis. The class given is ADME, organism-based. The conditions noted are these: Sprague-Dawley, in vivo.
Series [4] deals with Rattus norvegicus. Kind of series: Dose normalized AUC in Sprague-Dawley rat at 3 mg/kg, po administered as single cassette dose by LC-MS/MS analysis. The class given is ADME, organism-based. The conditions noted are these: in vivo.
The nature of series [5]: Lipophilicity, log D of compound at pH 7.4. The conditions noted are these: buffer.
Series [6] can be described thus: Clearance in Sprague-Dawley rat at 1 mg/kg, iv administered as single cassette dose by LC-MS/MS analysis. The class given is ADME, organism-based. The conditions noted are these: in vivo.
Series [7] relates to Rattus norvegicus. The series is described as §1. Format: ADME, organism-based. The conditions noted are these: in vivo.
The next series concerns PBMC. Kind of series: cells. The conditions noted are these: Homo sapiens.
For series [8], the system named is Rattus norvegicus. Kind of series: Dose normalized AUC in Sprague-Dawley rat at 3 mg/kg, po administered as single cassette dose measured over 8 hrs by LC-MS/MS analysis. The class given is ADME, organism-based. The conditions noted are these: in vivo.
A short description of series [9]: Oral bioavailability in Sprague-Dawley rat at 3 mg/kg administered as single cassette dose measured over 8 hrs by LC-MS/MS analysis. The class given is ADME, organism-based. The conditions noted are these: in vivo.
Series [10] can be described thus: Clearance in Sprague-Dawley rat at 1 mg/kg, iv administered as single cassette dose measured over 8 hrs by LC-MS/MS analysis. Format: ADME, organism-based. The conditions noted are these: in vivo.
Series [11] deals with T1, MAP kinase-activated protein kinase 2 (Homo sapiens, UniProt P49137). Kind of series: Inhibition of MK2 in anisomycin-stimulated human THP1 cells assessed as reduction in hsp27 phosphorylation at Ser78 by FACS analysis.
The target in series [12] is T1, MAP kinase-activated protein kinase 2. Kind of series: Inhibition of human MK2 using hsp27 peptide biotinyl-AYSRALSRQLSSGVSEIRCOOH as substrate after 45 mins by TR-FRET assay.

T1 sequence (P49137 whole entry): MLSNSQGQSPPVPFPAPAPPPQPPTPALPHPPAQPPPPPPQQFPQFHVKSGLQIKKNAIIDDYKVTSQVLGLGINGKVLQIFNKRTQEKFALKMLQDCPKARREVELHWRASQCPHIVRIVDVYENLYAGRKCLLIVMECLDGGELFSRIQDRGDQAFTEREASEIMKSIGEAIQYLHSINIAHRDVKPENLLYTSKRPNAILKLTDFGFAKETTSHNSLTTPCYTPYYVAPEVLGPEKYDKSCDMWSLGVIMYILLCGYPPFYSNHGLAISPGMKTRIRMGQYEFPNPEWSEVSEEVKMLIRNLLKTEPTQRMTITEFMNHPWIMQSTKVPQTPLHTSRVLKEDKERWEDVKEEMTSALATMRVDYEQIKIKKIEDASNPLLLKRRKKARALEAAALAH

In general, IC50 refers to the point on the concentration scale where inhibition reaches its midpoint. One may read the solubility as the concentration that dissolves in the medium under given conditions. The low end stands for a poorly soluble substance, the high end for a readily soluble substance. By bioavailability is commonly meant the share of a dose that reaches the circulation, judged against a reference dose that is usually intravenous. Higher therefore signals much systemic uptake. In general, logD refers to the decadic logarithm of the distribution of all forms, ionised or not, between an organic phase and buffer at a given pH. Read a low logD as a more hydrophilic compound. By clearance is commonly meant the rate of elimination divided by the concentration. For `CN1CC2(CNC(=O)c3c2[nH]c2c3CCc3cnc(-c4cccc(F)c4)cc3-2)C1`, the “log(permeability)” value in series [1] was -5.2. The compound further came in with an IC50 with Blood of 670 nM. In [2], this compound had a solubility of 32 µg/mL (≈ 82.4 µM). Further, the bioavailability in [3] stood at 27%. Moreover, the AUC/dose with Rattus norvegicus [4] was 121 nmol·h/L. In addition, in [5], the logD was determined as 3.4. The same compound gave a clearance in series [6] of 100 mL/min/kg.
With `CN1CC2(CNC(=O)c3c2[nH]c2c3CCc3cnc(-c4cccc(F)c4)nc3-2)C1`, the “log(permeability)” value in series [1] is given as -4.6. In the series on Rattus norvegicus [7], this compound showed an F of 151%. Further, in the series with Rattus norvegicus [4], the AUC/dose stood at 2154 nmol·h/L. The compound also had a clearance in [6] of 30 mL/min/kg.
Turning to `CN1CC2(CNC(=O)c3c2[nH]c2c3CCc3cnc(-c4cccc(F)c4)c(F)c3-2)C1`, the “log(permeability)” value in series [1] is -4.1. Besides, the results for the IC50 in the series on Blood and in the series on PBMC were 1650 nM and 550 nM, respectively. The solubility in [2] was determined as 4 µg/mL (≈ 9.84 µM). Moreover, in series [3], the bioavailability was 81%. This compound also had an AUC/dose with Rattus norvegicus [4] of 3486 nmol·h/L. Further, the logD in series [5] was 3.2. In addition, in series [6], the clearance came out at 11 mL/min/kg.
Take `COc1ccc(-c2ncc3c(c2F)-c2[nH]c4c(c2CC3)C(=O)NCC42CN(C)C2)cc1F`: in series [1], the “log(permeability)” value is -4.5. The IC50 in the series on Blood came to 800 nM; in the series on PBMC, 240 nM. This compound also returned a bioavailability in [3] of 60%. For the same compound, in the series with Rattus norvegicus [4], the AUC/dose was 1301 nmol·h/L. In [5], the logD came out at 3.3. In series [6], this compound showed a clearance of 20 mL/min/kg.
With `CN1CC2(CNC(=O)c3c4c(n(C)c32)-c2cc(-c3cccc(Cl)c3)ncc2CC4)C1`, the “log(permeability)” value in series [1] is listed as -3.9. The same compound showed an AUC/dose in the series on Rattus norvegicus [8] of 2415 nmol·h/L. This compound also yielded a bioavailability in series [9] of 53%. Further, the logD in series [5] came to 3.7. The compound further had a clearance in series [10] of 10 mL/min/kg.
With `COc1ccc(-c2ncc3c(c2F)-c2[nH]c4c(c2CC3)C(=O)NCC42CN(C)C2)cn1`, the “log(permeability)” value in series [1] was -4.8. Further, the IC50 in series [11] was 480 nM; in the series with Blood, 590 nM; in [12], below 3 nM; in the series on PBMC it was 490 nM. In series [3], this compound returned a bioavailability of 77%. For the same compound, in the series with Rattus norvegicus [4], the AUC/dose is 1766 nmol·h/L. Moreover, the logD in [5] turned out to be 2.8. In [6], the clearance is 19 mL/min/kg.

These data come from ChEMBL document CHEMBL4251742, “Modulating ADME Properties by Fluorination: MK2 Inhibitors with Improved Oral Exposure” (ACS Med Chem Lett, 2018).
